# Like-named read-outs stand apart in the source and are kept apart here.
# What was measured:
# CYP2C19 = CYP2C19 (Homo sapiens, UniProt P33261); experiment: CYP450 inhibition in HLM
# [1] = Metabolic stability in dog hepatocytes
# [2] = molecular target: kinase named in conditions (Homo sapiens, UniProt Q14012); experiment: SelectScreen kinase profiling, SSBK Adapta SP Technology; assay type: biochemical; conditions: CAMK1 (CaMK1), 10 μM
# [3] = molecular target: kinase named in conditions (Homo sapiens, UniProt O75747); experiment: as above; assay type: biochemical; conditions: PIK3C2G (PI3K-C2 gamma), 10 μM
# [4] = molecular target: kinase named in conditions (Homo sapiens, UniProt P42336, E542K); experiment: as above; assay type: biochemical; conditions: PIK3CA E542K/PIK3R1 (p110 alpha E542K/p85 alpha), 10 μM
# [5] = molecular target: kinase named in conditions (Homo sapiens, UniProt O15111); experiment: as above; assay type: biochemical; conditions: CHUK (IKK alpha), 10 μM
# [6] = molecular target: kinase named in conditions (Homo sapiens, UniProt P50750); experiment: as above; assay type: biochemical; conditions: CDK9/cyclin T1, 10 μM
# [7] = system: kinase named in conditions; experiment: as above; assay type: biochemical
# [8] = molecular target: kinase named in conditions (Homo sapiens, UniProt Q00534); experiment: as above; assay type: biochemical; conditions: CDK6/cyclin D1, 10 μM
# Chain of kinase named in conditions (Homo sapiens, UniProt Q00534) (Q00534 whole entry): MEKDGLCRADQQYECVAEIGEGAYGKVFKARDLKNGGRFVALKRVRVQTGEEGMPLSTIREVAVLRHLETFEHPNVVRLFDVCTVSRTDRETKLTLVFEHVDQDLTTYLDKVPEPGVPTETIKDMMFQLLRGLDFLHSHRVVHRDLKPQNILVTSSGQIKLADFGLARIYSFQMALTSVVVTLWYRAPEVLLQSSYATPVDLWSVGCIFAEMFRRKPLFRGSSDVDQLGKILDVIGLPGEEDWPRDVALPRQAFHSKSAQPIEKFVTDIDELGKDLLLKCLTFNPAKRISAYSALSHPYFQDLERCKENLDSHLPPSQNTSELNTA
# Chain of kinase named in conditions (Homo sapiens, UniProt Q00534) (P24385 whole entry partner): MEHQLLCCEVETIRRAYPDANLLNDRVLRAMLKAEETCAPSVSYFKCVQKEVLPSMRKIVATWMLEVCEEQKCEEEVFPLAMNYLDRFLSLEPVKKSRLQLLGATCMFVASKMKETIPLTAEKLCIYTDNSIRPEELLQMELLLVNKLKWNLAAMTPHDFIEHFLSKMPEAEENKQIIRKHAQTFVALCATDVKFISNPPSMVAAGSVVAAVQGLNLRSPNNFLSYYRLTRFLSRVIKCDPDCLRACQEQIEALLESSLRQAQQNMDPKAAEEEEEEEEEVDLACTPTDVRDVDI
# [9] = molecular target: kinase named in conditions (Homo sapiens, UniProt Q9BTU6); experiment: as above; assay type: biochemical; conditions: PI4K2A (PI4K2 alpha), 10 μM
# [10] = molecular target: kinase named in conditions (Homo sapiens, UniProt P48736); experiment: as above; assay type: biochemical; conditions: PIK3CG (p110 gamma), 10 μM
# Chain of kinase named in conditions (Homo sapiens, UniProt P48736) (P48736 whole entry): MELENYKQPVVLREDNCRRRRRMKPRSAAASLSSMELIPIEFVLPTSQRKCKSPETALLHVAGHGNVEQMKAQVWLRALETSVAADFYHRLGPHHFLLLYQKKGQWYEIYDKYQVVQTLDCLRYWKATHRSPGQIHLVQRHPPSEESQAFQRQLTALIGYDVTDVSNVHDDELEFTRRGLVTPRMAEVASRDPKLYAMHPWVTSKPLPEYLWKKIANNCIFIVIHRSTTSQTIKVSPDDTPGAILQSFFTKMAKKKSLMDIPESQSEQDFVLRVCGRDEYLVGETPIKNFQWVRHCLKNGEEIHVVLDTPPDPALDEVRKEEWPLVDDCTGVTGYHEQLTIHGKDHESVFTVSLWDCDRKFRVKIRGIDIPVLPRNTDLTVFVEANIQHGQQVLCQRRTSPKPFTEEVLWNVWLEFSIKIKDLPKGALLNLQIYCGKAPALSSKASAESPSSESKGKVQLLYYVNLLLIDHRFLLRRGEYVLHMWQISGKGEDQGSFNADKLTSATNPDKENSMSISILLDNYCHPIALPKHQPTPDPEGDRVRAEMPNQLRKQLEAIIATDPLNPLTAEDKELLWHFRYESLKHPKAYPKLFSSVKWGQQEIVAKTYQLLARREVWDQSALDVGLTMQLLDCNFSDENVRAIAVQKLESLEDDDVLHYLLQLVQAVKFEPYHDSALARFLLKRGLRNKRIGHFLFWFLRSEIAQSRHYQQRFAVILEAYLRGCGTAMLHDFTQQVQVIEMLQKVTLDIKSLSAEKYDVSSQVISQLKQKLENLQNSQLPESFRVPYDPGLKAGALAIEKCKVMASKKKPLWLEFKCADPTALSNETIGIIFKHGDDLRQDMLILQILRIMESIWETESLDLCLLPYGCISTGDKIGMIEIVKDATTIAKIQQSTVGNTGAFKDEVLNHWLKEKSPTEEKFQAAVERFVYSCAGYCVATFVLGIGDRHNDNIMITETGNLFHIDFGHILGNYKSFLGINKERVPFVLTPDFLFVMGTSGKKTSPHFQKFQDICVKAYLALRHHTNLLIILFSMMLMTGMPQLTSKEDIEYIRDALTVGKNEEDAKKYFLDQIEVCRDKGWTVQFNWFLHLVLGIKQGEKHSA
# [11] = molecular target: kinase named in conditions (Homo sapiens, UniProt Q5S007, G2019S); experiment: as above; assay type: biochemical; conditions: LRRK2 G2019S FL, 10 μM
# [12] = molecular target: kinase named in conditions (Homo sapiens, UniProt P50613); experiment: as above; assay type: biochemical; conditions: CDK7/cyclin H/MNAT1, 10 μM
# [13] = molecular target: kinase named in conditions (Homo sapiens, UniProt Q8TCG2); experiment: as above; assay type: biochemical; conditions: PI4K2B (PI4K2 beta), 10 μM
# Chain of kinase named in conditions (Homo sapiens, UniProt Q8TCG2) (Q8TCG2 whole entry): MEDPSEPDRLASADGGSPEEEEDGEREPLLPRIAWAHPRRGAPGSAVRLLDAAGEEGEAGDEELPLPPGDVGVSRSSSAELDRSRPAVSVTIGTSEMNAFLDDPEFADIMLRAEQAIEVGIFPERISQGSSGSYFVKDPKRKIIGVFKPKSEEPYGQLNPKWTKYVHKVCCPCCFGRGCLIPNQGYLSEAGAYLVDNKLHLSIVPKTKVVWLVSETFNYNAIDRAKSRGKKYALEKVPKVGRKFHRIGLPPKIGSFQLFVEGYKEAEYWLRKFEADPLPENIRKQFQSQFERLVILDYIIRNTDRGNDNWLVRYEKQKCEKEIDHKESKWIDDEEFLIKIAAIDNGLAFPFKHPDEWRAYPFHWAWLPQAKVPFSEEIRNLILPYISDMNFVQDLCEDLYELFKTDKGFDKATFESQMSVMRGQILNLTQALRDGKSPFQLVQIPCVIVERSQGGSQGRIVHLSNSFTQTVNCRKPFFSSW
# [14] = molecular target: kinase named in conditions (Homo sapiens, UniProt Q5S007); experiment: as above; assay type: biochemical; conditions: LRRK2 FL, 10 μM
# [15] = molecular target: kinase named in conditions (Homo sapiens, UniProt O00329); experiment: as above; assay type: biochemical; conditions: PIK3CD/PIK3R1 (p110 delta/p85 alpha), 10 μM
# [16] = molecular target: kinase named in conditions (Homo sapiens, UniProt Q9UBF8); experiment: as above; assay type: biochemical; conditions: PI4KB (PI4K beta), 10 μM
# Chain of kinase named in conditions (Homo sapiens, UniProt Q9UBF8) (Q9UBF8 whole entry): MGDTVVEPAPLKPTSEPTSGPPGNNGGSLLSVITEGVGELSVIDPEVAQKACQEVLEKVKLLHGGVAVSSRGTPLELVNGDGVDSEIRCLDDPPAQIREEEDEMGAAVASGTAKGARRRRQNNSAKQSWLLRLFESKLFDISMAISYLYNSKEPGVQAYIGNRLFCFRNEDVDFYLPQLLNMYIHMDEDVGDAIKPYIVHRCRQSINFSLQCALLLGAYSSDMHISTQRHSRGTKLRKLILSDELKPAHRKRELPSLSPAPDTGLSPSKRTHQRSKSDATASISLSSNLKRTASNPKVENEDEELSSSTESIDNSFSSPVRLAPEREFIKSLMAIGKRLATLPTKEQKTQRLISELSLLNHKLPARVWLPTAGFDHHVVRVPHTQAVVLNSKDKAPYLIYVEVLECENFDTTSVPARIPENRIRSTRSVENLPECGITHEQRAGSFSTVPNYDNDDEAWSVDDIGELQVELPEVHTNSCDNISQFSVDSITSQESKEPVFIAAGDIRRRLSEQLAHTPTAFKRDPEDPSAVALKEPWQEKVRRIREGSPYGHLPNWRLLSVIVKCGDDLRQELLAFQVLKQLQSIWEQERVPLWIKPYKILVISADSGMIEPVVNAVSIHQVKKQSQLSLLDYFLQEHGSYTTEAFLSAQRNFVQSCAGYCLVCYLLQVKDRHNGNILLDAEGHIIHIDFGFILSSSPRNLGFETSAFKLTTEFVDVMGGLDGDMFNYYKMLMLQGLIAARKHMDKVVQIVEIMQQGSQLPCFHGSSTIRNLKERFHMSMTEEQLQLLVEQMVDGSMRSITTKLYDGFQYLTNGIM
# [17] = molecular target: kinase named in conditions (Homo sapiens, UniProt O00750); experiment: as above; assay type: biochemical; conditions: PIK3C2B (PI3K-C2 beta), 10 μM
# [18] = molecular target: kinase named in conditions (Homo sapiens, UniProt P11802); experiment: as above; assay type: biochemical
# [19] = molecular target: kinase named in conditions (Homo sapiens, UniProt P42356); experiment: as above; assay type: biochemical; conditions: PI4KA (PI4K alpha), 10 μM
# [20] = molecular target: kinase named in conditions (Homo sapiens, UniProt O14986); experiment: as above; assay type: biochemical; conditions: PIP5K1B, 10 μM
# Chain of kinase named in conditions (Homo sapiens, UniProt O14986) (O14986 whole entry): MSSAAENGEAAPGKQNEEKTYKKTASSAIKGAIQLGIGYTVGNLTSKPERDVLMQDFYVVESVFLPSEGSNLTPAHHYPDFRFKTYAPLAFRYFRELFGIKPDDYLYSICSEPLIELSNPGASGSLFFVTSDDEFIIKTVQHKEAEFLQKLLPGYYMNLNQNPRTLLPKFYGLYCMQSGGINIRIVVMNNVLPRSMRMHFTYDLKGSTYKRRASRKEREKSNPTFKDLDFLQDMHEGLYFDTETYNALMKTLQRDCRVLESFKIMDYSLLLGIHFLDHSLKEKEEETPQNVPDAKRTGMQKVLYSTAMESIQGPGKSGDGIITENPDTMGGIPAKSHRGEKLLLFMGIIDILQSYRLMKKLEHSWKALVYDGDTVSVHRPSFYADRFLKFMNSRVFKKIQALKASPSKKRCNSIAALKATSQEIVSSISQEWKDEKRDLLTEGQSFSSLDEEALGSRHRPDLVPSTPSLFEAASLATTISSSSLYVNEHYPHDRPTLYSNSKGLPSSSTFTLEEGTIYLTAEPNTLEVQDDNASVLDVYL
# [21] = molecular target: kinase named in conditions (Homo sapiens, UniProt O60331); experiment: as above; assay type: biochemical; conditions: PIP5K1C, 10 μM
# [22] = molecular target: kinase named in conditions (Homo sapiens, UniProt O60285); experiment: as above; assay type: biochemical; conditions: NUAK1 (ARK5), 10 μM
# Chain of kinase named in conditions (Homo sapiens, UniProt O60285) (O60285 whole entry): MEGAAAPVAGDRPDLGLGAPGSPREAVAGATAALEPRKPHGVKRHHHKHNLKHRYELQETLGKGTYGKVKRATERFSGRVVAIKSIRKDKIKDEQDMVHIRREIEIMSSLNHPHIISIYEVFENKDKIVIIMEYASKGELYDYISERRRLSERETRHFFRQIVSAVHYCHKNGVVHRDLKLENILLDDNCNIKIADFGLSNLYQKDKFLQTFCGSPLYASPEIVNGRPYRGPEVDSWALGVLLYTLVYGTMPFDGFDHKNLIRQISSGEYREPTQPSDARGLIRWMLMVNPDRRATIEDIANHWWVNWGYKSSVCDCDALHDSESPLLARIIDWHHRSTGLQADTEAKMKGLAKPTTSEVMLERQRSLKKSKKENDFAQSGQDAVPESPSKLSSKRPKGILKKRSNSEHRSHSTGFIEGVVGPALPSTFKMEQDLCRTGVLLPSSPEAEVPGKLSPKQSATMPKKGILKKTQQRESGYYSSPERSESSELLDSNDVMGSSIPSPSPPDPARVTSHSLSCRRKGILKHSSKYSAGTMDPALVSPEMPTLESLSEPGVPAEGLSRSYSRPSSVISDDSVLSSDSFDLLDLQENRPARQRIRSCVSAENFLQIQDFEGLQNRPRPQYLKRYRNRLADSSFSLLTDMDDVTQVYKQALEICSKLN
# [23] = molecular target: kinase named in conditions (Homo sapiens, UniProt P42338); experiment: as above; assay type: biochemical; conditions: 10 μM
# [24] = molecular target: kinase named in conditions (Homo sapiens, UniProt Q8TF76); experiment: as above; assay type: biochemical; conditions: GSG2 (Haspin), 10 μM
# [25] = molecular target: kinase named in conditions (Homo sapiens, UniProt P48426); experiment: as above; assay type: biochemical; conditions: PIP4K2A, 10 μM
# [26] = molecular target: kinase named in conditions (Homo sapiens, UniProt Q99755); experiment: as above; assay type: biochemical; conditions: PIP5K1A, 10 μM
# [27] = molecular target: kinase named in conditions (Homo sapiens, UniProt Q8NEB9); experiment: as above; assay type: biochemical; conditions: PIK3C3 (hVPS34), 10 μM
# [28] = molecular target: kinase named in conditions (Homo sapiens, UniProt P42336); experiment: as above; assay type: biochemical; conditions: 10 μM
# [29] = molecular target: kinase named in conditions (Homo sapiens, UniProt O00443); experiment: as above; assay type: biochemical; conditions: PIK3C2A (PI3K-C2 alpha), 10 μM
# NaV1.5 = molecular target: T1, NaV1.5 (Homo sapiens, UniProt Q14524); experiment: Safety47 cardiac sodium channel assay; assay type: cell-based
# T1 construct: Eurofins (DiscoverX Safety47)
# Procedure: Screening for off-target pharmacology across multiple drug target classes was performed in the DiscoverX Safety47 panel as the SAFETYscan E/IC50 ELECT service by Eurofins (San Diego CA, U.S.A.). Assay information and data are presented in the Supporting Information.
# Chain of CYP2C19 (P33261 whole entry): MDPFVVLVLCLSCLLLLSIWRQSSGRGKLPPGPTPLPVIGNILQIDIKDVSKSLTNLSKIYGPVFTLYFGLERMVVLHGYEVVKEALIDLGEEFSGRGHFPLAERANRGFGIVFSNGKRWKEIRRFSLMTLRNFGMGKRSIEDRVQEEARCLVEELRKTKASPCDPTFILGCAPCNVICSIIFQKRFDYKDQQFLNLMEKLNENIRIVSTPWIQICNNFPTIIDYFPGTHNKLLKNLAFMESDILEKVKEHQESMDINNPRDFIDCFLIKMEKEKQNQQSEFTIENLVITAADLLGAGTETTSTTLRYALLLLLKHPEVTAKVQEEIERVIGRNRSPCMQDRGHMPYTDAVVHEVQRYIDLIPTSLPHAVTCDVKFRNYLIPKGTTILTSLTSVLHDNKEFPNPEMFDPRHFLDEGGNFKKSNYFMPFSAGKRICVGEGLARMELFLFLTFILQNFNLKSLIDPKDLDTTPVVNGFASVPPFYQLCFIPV
compound,measurement,setting,value
"FC(F)(F)c1c(Cl)ccc(-n2ccnn2)c1Cl [8l, 1-(2,4-Dichloro-3-(trifluoromethyl)phenyl)-1H-1,2,3-triazole]",IC50,CYP2C19,7.27 µM
same,IC50,"CYP2C19; read-out: CYP inhibition IC50, 2C19, HLM",8.1 µM
same,IC50,"CYP2C19; read-out: IC50 CYP2C19/S-Mephenytoin, (+)NADPH pre-incubation",8.07 µM
same,half-life,[1],> 3.61 h
same,hepatocyte CLint,[1],< 6.4 µL/min/1e6 cells
same,inhibition at 10 µM,[2],11%
same,inhibition at 10 µM,[3],11%
same,inhibition at 10 µM,[4],6%
same,inhibition at 10 µM,[5],4%
same,inhibition at 10 µM,[6],-3%
same,% Inhibition mean,"[7]; DAPK1, 10 μM",-8%
same,% Inhibition mean,"[7]; IRAK1, 10 μM",-10%
same,% Inhibition mean,"[7]; LRRK2, 10 μM",-12%
same,% Inhibition mean,"[7]; LRRK2 G2019S, 10 μM",1%
same,% Inhibition mean,"[7]; LRRK2 I2020T, 10 μM",1%
same,% Inhibition mean,"[7]; LRRK2 R1441C, 10 μM",1%
same,% Inhibition mean,"[7]; SPHK1, 10 μM",-8%
same,% Inhibition mean,"[7]; SPHK2, 10 μM",0%
same,inhibition at 10 µM,[8],-3%
same,inhibition at 10 µM,[9],13%
same,inhibition at 10 µM,[10],-15%
same,inhibition at 10 µM,[11],15%
same,inhibition at 10 µM,[12],-3%
same,inhibition at 10 µM,[13],16%
same,inhibition at 10 µM,[14],7%
same,inhibition at 10 µM,[15],-25%
same,inhibition at 10 µM,[16],1%
same,inhibition at 10 µM,[17],8%
same,inhibition at 10 µM,"[18]; CDK4/cyclin D1, 10 μM",6%
same,inhibition at 10 µM,"[18]; CDK4/cyclin D3, 10 μM",4%
same,inhibition at 10 µM,[19],-4%
same,inhibition at 10 µM,[20],1%
same,inhibition at 10 µM,[21],-2%
same,inhibition at 10 µM,[22],-3%
same,inhibition at 10 µM,[23]; PIK3CB/PIK3R1 (p110 beta/p85 alpha),1%
same,inhibition at 10 µM,[23]; PIK3CB/PIK3R2 (p110 beta/p85 beta),15%
same,inhibition at 10 µM,[24],10%
same,inhibition at 10 µM,[25],-1%
same,inhibition at 10 µM,[26],0%
same,inhibition at 10 µM,[27],-5%
same,inhibition at 10 µM,[28]; PIK3CA/PIK3R1 (p110 alpha/p85 alpha),-6%
same,inhibition at 10 µM,[28]; PIK3CA/PIK3R3 (p110 alpha/p55 gamma),0%
same,inhibition at 10 µM,[29],-10%
same,IC50,NaV1.5,> 30 µM
